“And” between values parts separate entries of the source, which are not always exact repeats. Equal entries are not always repeated.
Assays:
[1] = tested on: P. falciparum stage V gametocytes; test: P. falciparum gametocyte viability assay (MitoTracker, flow cytometry), stage V; format: cell-based, Plasmodium falciparum; conditions: 48 h; for Gametocyte stage V viability, percentage of control: listed as BC9B
Procedure: Gametocyte assays commenced seven days (stage III–IV) or ten days (stage V) post-invasion. […]
Plasmodium falciparum Gametocyte Viability Assays:
Asexual P. falciparum parasites were induced to form gametocytes as described (21).
Synchronized trophozoite-stage parasites at 2% parasitaemia were incubated overnight and […]
haematocrit maintained at 4%. On the subsequent day (designated as day 0) of gametocytogenesis, the culture containing early ring-stage parasites was first purified by sorbitol synchronisation to remove asynchronous trophozoites, and passed through a magnetic field in a sterile MACS® column in a SuperMACSTM II magnet to remove remaining late-stage parasites or later-stage gametocytes (negative selection). The culture medium was supplemented with 50 mM N-acetyl-D-glucosamine to inhibit asexual parasite proliferation, and changed daily. Sorbitol treatment was performed on Day 1, 5, and 6 to further remove asexual parasites. Gametocytes were magnetically enriched (positive selection) in a sterile column with a SuperMACSTM II magnet and eluted in culture media with 50 mM N-acetyl-D-glucosamine. These gametocytes were incubated overnight at 37 °C under microaerophilic conditions, and purity was assessed by examination under a light microscope (400× […]
Gametocyte viability was assessed as described by Ridgway et al. (21) with modifications.
Compounds or solvent controls (DMSO) were serially diluted across 96-well plates in culture media supplemented with 50 mM N-acetyl-D-glucosamine. Culture media without compound was used as a negative control. […]
control to determine background gametocyte fluorescence. Stage III-IV gametocytes (Day 7) or stage V (day 10) gametocytes were concentrated and added to the plate with 200 µL per well. The plate was incubated for 48 hours at 37 °C under humid microaerophilic conditions.
Parasites were then stained with 500 nM MitoTrackerTM Deep Red FM and 5 μg/ml Hoechst […]
cytometer as described above. […]
excluded. Live (positive) and dead (negative) gametocytes were differentiated by […]
percentage of each was calculated. […]

P. berghei liver stages = test: Plasmodium berghei liver stage growth inhibition assay (luminescence, in Huh7 cells); conditions: for P. berghei liver stage growth, dose-response data points (Figure 3A): replicate data points; for P. berghei liver stage growth, dose-response data points (Figure 3A) / Figure 3E dose-response value (replicates): listed as BC9B
Procedure: Growth inhibition or cell viability were assessed by incubation with a serial dilution of test compounds, solvent controls (DMSO, ethanol, ethyl acetate), or culture media alone in 96-well plates, with detection of fluorescence, luminescence, or absorbance in microplate readers after 24–96 h unless otherwise specified.
Huh7 cells were seeded at a density of 10,000 cells per well of a 96-well plate, or 20,000 cells per collagen-coated coverslip. After 24 h, test compounds were added the wells were inoculated with P. berghei liver stage sporozoites dissected from infected A. stephensi salivary glands with 5000–10,000 sporozoites per well or 10,000–20,000 sporozoites per coverslip. Uninfected wells served as a control for background luminescence. Luminescence signal was measured 48 h post-invasion by addition of 1:1 ONE-Glo^TM substrate (Promega) with a luminescence microplate reader. Coverslips were fixed, stained, and imaged, with all parasites on each coverslip imaged and delineated as described (Petersen et al, [2017]) using Fiji ImageJ (Schindelin et al, [2012]). Data are presented as a percentage of the size or parasite number of the solvent control to normalize for differences between experiments.
Growth inhibition data were normalised by subtracting background fluorescence, luminescence, absorbance, or percentage of cells from a no-growth or no-viability control (high drug concentration, no-parasite control, or time = 0 measurement as specified), and expressed as a percentage of the growth or cell percentage in the negative control (culture media alone or solvent control) at the indicated timepoint (or to the highest measurement reached during the assay for Fig. EV3).
Plasmodium berghei ANKA Bergreen (22) or GFP-Luc (RMgm-29) (23), respectively
expressing green fluorescent protein (GFP) or a GFP-Luciferase fusion protein, were
maintained under routine conditions in SWR/J Mus musculus mice and Anopheles stephensi
Growth inhibition of P. berghei liver-stages was investigated after infection of human
hepatoma cells (Huh7) and subsequent growth for 48 hours at 37° C, 5% CO2 and 80%
humidity. The day prior to infection, 10,000 Huh7 cells were seeded in dark-sided 96-well
microplates (Greiner Bio One). On the day of infection, compounds or solvent controls
(DMSO) were serially diluted in culture media and 5,000 – 10,000 Bergreen or GFP-Luc
sporozoites were added per well following dissection from infected A. stephensi salivary
glands. Uninfected wells served as control for background luminescence. To promote invasion,
the plates were centrifuged at 1,550 g for 5 minutes. After 60 minutes, the media was
completely replaced with fresh, prewarmed media with the matching drug concentrations.
Media was partially replaced with new drug dilutions over the following two days. 48 hours
post-infection, luminescence signal was measured by addition of 1:1 ONE-GloTM substrate
(Promega) to the wells, followed by detection at 300 – 700 nm using a Synergy HTX plate

SMILES: COc1cc(NC(C)CCCNC(=O)CCC(=O)OC(C)C)c2ncccc2c1 (stereo not drawn) [PQ-link]
- Gametocyte stage V viability, percentage of control ([1]; 100.000000000 uM, replicate values, source data Fig. 2D): 11.39% (2×) and 9.662% and 17.36% and 16.33% and 21.17% and 48.62% and 50.63% and 48.77%
- Gametocyte stage V viability, percentage of control ([1]; 200.000000000 uM, replicate values, source data Fig. 2D): -1.011% and -1.165% and -0.9342% and -0.2117% and -0.2822% and -0.3175% and 0.4794% and 0.8647% and 0.8741%
- viability at 6.25 µM ([1]; Plasmodium falciparum, 6.250000000 uM, replicate values, source data Fig. 2D, read-out: Gametocyte stage V viability, percentage of control): 103%
- viability at 12.5 µM ([1]; Plasmodium falciparum, 12.500000000 uM, replicate values, source data Fig. 2D, read-out: Gametocyte stage V viability, percentage of control): 104%
- viability at 25 µM ([1]; Plasmodium falciparum, 25.000000000 uM, replicate values, source data Fig. 2D, read-out: Gametocyte stage V viability, percentage of control): 87.6%
- IC50 ([1]; Plasmodium falciparum, read-out: IC50, P. falciparum gametocyte stage V inhibition): 70.5 µM
- P. berghei liver stage growth, dose-response data points (Figure 3A) (P. berghei liver stages; 0.015241580 uM): 92.27 and 99.03 and 108.7 and 82.7 and 111.9 and 105.4 and 99.3 and 85.25 and 115.4
- P. berghei liver stage growth, dose-response data points (Figure 3A) (P. berghei liver stages; 0.045724740 uM): 97.1 and 81.64 and 78.74 and 103.7 and 110.1 and 105.2 and 93.19 and 87.52 and 92.15
- P. berghei liver stage growth, dose-response data points (Figure 3A) (P. berghei liver stages; 0.137174210 uM): 100 and 94.2 and 80.68 and 93.41 and 113.2 and 98.29 and 109.9 and 94.24 and 87.26
- Figure 3E dose-response value (replicates) (P. berghei liver stages; 0.238281250 uM): 98.59
- P. berghei liver stage growth, dose-response data points (Figure 3A) (P. berghei liver stages; 0.411522630 uM): 112.6 and 99.03 and 80.68 and 102.2 and 100.8 and 100.3 and 103.8 and 90.84 and 80.37
- Figure 3E dose-response value (replicates) (P. berghei liver stages; 0.476562500 uM): 90.54 and 104.6 and 95.37 and 97.54 and 101.7 and 100.2 and 97.21 and 100.9 and 86.29 and 94.55 and 90.62
- P. berghei liver stage growth, dose-response data points (Figure 3A) (P. berghei liver stages; 1.234567900 uM): 102.9 and 94.2 and 112.6 and 111.7 and 103.5 and 88.53 and 119.6 and 97.91 and 82.29
- Figure 3E dose-response value (replicates) (P. berghei liver stages; 1.906250000 uM): 91.51 and 91.73 and 86.54 and 84.53 and 94.62 and 101.5 and 100.5 and 102.9 and 93.23 and 96 and 85.81
- P. berghei liver stage growth, dose-response data points (Figure 3A) (P. berghei liver stages; 3.703703700 uM): 97.1 and 64.25 and 91.3 and 55.79 and 60.08 and 47.34 and 73.56 and 51.31 and 52.36
- Figure 3E dose-response value (replicates) (P. berghei liver stages; 3.812500000 uM): 95.8 and 93.79 and 78.58 and 83.98 and 89.72 and 104 and 93.76 and 101.5 and 80.15 and 95.42 and 85.86
- Figure 3E dose-response value (replicates) (P. berghei liver stages; 7.625000000 uM): 98.29 and 86.67 and 78.83 and 80.78 and 88.54 and 106.8 and 100.5 and 90.89 and 82.41 and 82.35 and 77.49
- P. berghei liver stage growth, dose-response data points (Figure 3A) (P. berghei liver stages; 11.111111100 uM): 24.64 and 16.91 and 28.5 and 18.53 and 18.77 and 20.08 and 31.94 and 26.35 and 21.2
- Figure 3E dose-response value (replicates) (P. berghei liver stages; 15.250000000 uM): 60.3 and 56.28 and 80.98 and 77.04 and 83.07 and 85.06 and 90.81 and 88.28 and 61.89 and 72.05 and 69.51
- Figure 3E dose-response value (replicates) (P. berghei liver stages; 30.500000000 uM): 25.91 and 29.38 and 68.25 and 66.32 and 65.97 and 65.87 and 62.35 and 59.29 and 31.73 and 40.4 and 41.06
- P. berghei liver stage growth, dose-response data points (Figure 3A) (P. berghei liver stages; 33.333333300 uM): 3.382 (2×) and 4.348 and 16.15 and 16.87 and 15.2 and 10.82 and 11.34 and 9.511
- Figure 3E dose-response value (replicates) (P. berghei liver stages; 61.000000000 uM): 6.18 and 4.905 and 12.31 and 10.74 and 14.16 and 15.86 and 12.88 and 14.9 and 2.822 and 2.591 and 2.429
- P. berghei liver stage growth, dose-response data points (Figure 3A) (P. berghei liver stages; 100.000000000 uM): -1.449 and -0.4831 and -2.415 and 1.984 and 3.77 and 1.865 and 3.403 and 2.705 and 2.007
- IC50 (P. berghei liver stages; Plasmodium berghei, Huh-7, 48 h, read-out: IC50, P. berghei liver stage growth inhibition): 5.7 µM

Source: PMC11251039, “Harnessing cholesterol uptake of malaria parasites for therapeutic applications” (EMBO Molecular Medicine, 2024)
